{"source": "patent US9108933B2", "about": "“Method for treating proliferative disorders associated with mutations in c-Met” (Synta Pharmaceuticals Corp., priority 2007, dated 2015)", "key": {"[1]": {"test_system": "mutant c-Met (T1010I) on ACHN human renal cell carcinoma cells", "assay": "Flow cytometric analysis of c-Met on the surface of ACHN cells", "assay_type": "cell-based", "settings": "18 hours, read-out: IC50 for degradation of mutant c-Met", "method": "(§1) Flow cytometric analysis was used to monitor the degradation of c-Met over-expressed on the surface of the ACHN human renal cell carcinoma cell line which contains the juxtamembrane domain mutation (C3223T: T1010I) and is constitutively active, and the MKN45 which is a c-Met amplified human gastric carcinoma cell line. ACHN and MKN45 cells (5×10^5 cells) were treated with Compound 226, 17-AAG or 17-DMAG for 18 hours. After treatment the cells were stained with FITC conjugated c-MET antibody. The expression of the c-Met cell surface proteins was measured by flow cytometry analysis (see FIG. 4 for ACHN cells and FIG. 5 for MKN45 cells). The IC50 value was determined by XLfit software."}, "[2]": {"test_system": "MNK45 cell line, c-Met amplified human gastric carcinoma", "assay": "Cell survival of MKN45 cells (Cell Counting Kit-8)", "assay_type": "cell-based", "settings": "72 hours", "method": "MNK45 cell line, (DSMZ #ACC 409), which is a c-Met amplified human gastric carcinoma cell line, was obtained from the Deutsche Sammlung von Mikroorganismen and Zellkulturen GmbH (DSMZ; Braunschweig, Germany). […] MNK45 cells (20,000 cells/well) were cultured in 96-well plates and maintained at 37° C. for several hours. The cells were incubated at 37° C. for 72 hours with various concentrations of compound 226 of the invention, 17AAG, or DMAG. 17AAG and 17DMAG are Hsp90 inhibitors that are currently in clinical trials and are used here as positive controls for Hsp90 inhibition. Cell survival was measured with Cell Counting Kit-8 (Dojindo Laboratories, Cat # CK04)."}, "[3]": {"test_system": "c-Met on MKN45 c-Met amplified human gastric carcinoma cells", "assay": "Flow cytometric analysis of c-Met on the surface of MKN45 cells", "assay_type": "cell-based", "settings": "MKN-45 cell line, 18 hours; read-out: IC50 for degradation of c-Met", "method": "as §1"}, "[4]": {"test_system": "human tumor cell line MDA-MB-435S", "assay": "MDA-MB-435S nude mouse xenograft model", "assay_type": "in vivo", "settings": "300 mg/kg body weight, IP, 5 days per week for 3 weeks", "method": "FBS was obtained from Sigma-Aldrich Corp. (St. Louis, Mo., USA), and all other reagents were obtained from Invitrogen Corp. (Carlsbad, Calif., USA). Approximately 4-5×10(6) cells that had been cryopreserved in liquid nitrogen were rapidly thawed at 37° C. and transferred to a 175 cm^2 tissue culture flask containing 50 ml of growth media and then incubated at 37° C. in a 5% CO2 incubator. The growth media was replaced every 2-3 days until the flask became 90% confluent, typically in 5-7 days. To passage and expand the cell line, a 90% confluent flask was washed with 10 ml of room temperature phosphate buffered saline (PBS) and the cells were disassociated by adding 5 ml 1× Trypsin-EDTA (Invitrogen) and incubating at 37° C. until the cells detached from the surface of the flask. […] The supernatant was aspirated and the cell pellet was resuspended in 10 ml of growth media and the cell number determined using a hemocytometer. […]\nSix to eight week old, female Crl:CD-1-nuBR (nude) mice were obtained from Charles River Laboratories (Wilmington, Mass., USA). […] Tumor volumes (V) were calculated by caliper measurement of the width (W), length (L) and thickness (T) of tumors using the following formula: V=[…]×(L×W×T) Animals were randomized into treatment groups so that the average tumor volumes of each group were similar at the start of dosing. […]"}, "Her2": {"test_system": "Her2", "assay": "Degradation of Her2 in BT-474 cells, Western blot (Method 1)", "assay_type": "cell-based, human", "settings": "overnight", "method": "Human high-Her2 breast carcinoma BT474 (HTB-20), SK-BR-3 (HTB-30) and MCF-7 breast carcinoma (HTB-22) from American Type Culture Collection, VA, USA were grown in Dulbecco's modified Eagle's medium with 4 mM L-glutamine and antibiotics (100 IU/ml penicillin and 100 ug/ml streptomycine; GibcoBRL). To obtain exponential cell growth, cells were trypsinized, counted and seeded at a cell density of 0.5×10^6 cells/ml regularly, every 3 days. All experiments were performed on day 1 after cell passage.\nAfter treatment, each cytoplasmic sample was prepared from 1×10^6 cells by incubation of cell lysis buffer (#9803, cell Signaling Technology) on ice for 10 minutes. The resulting supernatant used as the cytosol fractions were dissolved with sample buffer for SDS-PAGE and run on a SDS-PAGE gel, blotted onto a nitrocellulose membrane by using semi-dry transfer. Non-specific binding to nitrocellulose was blocked with 5% skim milk in TBS with 0.5% Tween at room temperature for 1 hour, then probed with anti-Her2/ErB2 mAb (rabbit IgG, #2242, Cell Signaling) and anti-Tubulin (T9026, Sigma) as housekeeping control protein. HRP-conjugated goat antirabbit IgG (H+L) and HRP-conjugated horse anti-mouse IgG (H+L) were used as secondary Ab (#7074, #7076, Cell Signaling) and LumiGLO reagent, 20× Peroxide (#7003, Cell Signaling) was used for visualization."}, "Hsp90 protein": {"test_system": "Hsp90 protein", "assay": "Malachite Green assay of ATPase activity of Hsp90 protein", "assay_type": "biochemical", "settings": "37° C., 4 hours", "method": "Hsp90 protein was obtained from Stressgen (Cat#SPP-770). Assay buffer: 100 mM Tris-HCl, Ph7.4, 20 mM KCl, 6 mM MgCl2. […] Malachite green reagent was added to the reaction. […] The plate was read by an ELISA reader with an absorbance at 620 nm."}, "[5]": {"test_system": "human c-MET amplified gastric carcinoma tumor cell line MKN-45", "assay": "MKN-45 nude mouse xenograft model", "assay_type": "in vivo", "settings": "50 mg/kg body weight, i.v., 3 times per week, 9 doses", "method": "The human gastric carcinoma cell line, MKN-45 (DSMZ #ACC 409), was obtained from the Deutsche Sammlung von Mikroorganismen and Zellkulturen GmbH (DSMZ; Braunschweig, Germany). […] FBS was obtained from ATCC and all other reagents were obtained from Invitrogen Corp. (Carlsbad, Calif., USA). Cells that had been cryopreserved in liquid nitrogen were rapidly thawed at 37° C. and transferred to a tissue culture flask containing growth media and then incubated at 37° C. in a 5% CO2 incubator. To expand the cell line, growth media was replaced every 2-3 days until the flask became 90% confluent, typically in 5-10 days. Cultures were passaged by washing with 10 mL of room temperature phosphate buffered saline (PBS) and then disassociating cells by adding 5 mL 1× trypsin-EDTA and incubating at 37° C. until the cells detached from the surface of the flask. To inactivate the trypsin, 5 mL of growth media was added and then the contents of the flask were centrifuged to pellet the cells. The supernatant was aspirated and the cell pellet was resuspended in 10 mL of growth media and the cell number determined using a hemocytometer. Approximately 3-6×10(6) cells per flask were seeded into 175 cm^2 flasks containing 50 mL of growth media and incubated at 37° C. in a 5% CO2 incubator. […]\nTumors were then permitted to develop in vivo until the majority reached 100-200 mm^3 in tumor volume, which required ˜2 weeks following implantation. […] Tumor volumes (V) were calculated by caliper measurement of the width (W), length (L) and thickness (T) of tumors using the following formula: V=0.5236×(L×W×T). Animals were randomized into treatment groups so that the average tumor volumes of each group were similar at the start of dosing. % T/C values, as a measure of efficacy, were determined as follows: • (i) If ΔT>0: % T/C=(ΔT/ΔC)×100 • (ii) If ΔT<0: % T/C=(ΔT/T0)×100 • (iii) ΔT=Change in average tumor volume between start of dosing and the end of study. • (iv) ΔC=Change in average tumor volume between start of dosing and the end of study. • (v) T0=Average tumor volume at start of dosing. […]"}}, "note": "pIC50: −log10 of the molar value. Entries after “also recorded” stand apart in the source; their conditions may differ.", "data": [{"smiles": "CO[C@H]1/C=C\\C=C(/C)C(=O)NC2=CC(=O)C(NCCN(C)C)=C(C[C@@H](C)C[C@H](OC)[C@H](O)[C@@H](C)/C=C(\\C)[C@@H]1OC(N)=O)C2=O", "note": "[Compound 17-DMAG]", "values": [{"measurement": "pIC50", "setting": "[1]", "result": 7.02}, {"measurement": "pIC50", "setting": "[2]", "result": 7.85}, {"measurement": "pIC50", "setting": "[3]", "result": 7.15}]}, {"smiles": "C=CCNC1=C2C[C@@H](C)C[C@H](OC)[C@H](O)[C@@H](C)/C=C(\\C)[C@H](OC(N)=O)[C@@H](OC)/C=C\\C=C(/C)C(=O)NC(=CC1=O)C2=O", "note": "[Compound 17AAG]", "values": [{"measurement": "pIC50", "setting": "[2]", "result": 7.35}]}, {"smiles": "CCc1cc(-c2nnc(S)n2-c2cccc3ccccc23)c(O)cc1O", "note": "[Compound 49, 3-(2,4-Dihydroxy-5-ethyl-phenyl)-4-(naphthalen-1-yl)-5-mercapto-triazole]", "values": [{"measurement": "toxicity (effect on body weights)", "setting": "[4]", "result": "not associated with significant toxicity"}]}, {"smiles": "Oc1ccc(-c2nnc(S)n2-c2cccc3ccccc23)c(O)c1", "note": "[Compound 108, 3-(2,4-Dihydroxy-3-phenyl)-4-(naphthalen-1-yl)-5-mercapto-triazole]", "values": [{"measurement": "degradation of Her2", "setting": "Her2; 0.5 μM", "result": "partially degradated"}, {"measurement": "degradation of Her2", "setting": "Her2; 2 μM", "result": "partially degradated"}, {"measurement": "degradation of Her2", "setting": "Her2; 5 μM", "result": "almost completely degraded"}, {"measurement": "inhibition of ATPase activity of Hsp90", "setting": "Hsp90 protein; 4 μM", "result": "significant inhibition"}, {"measurement": "inhibition of ATPase activity of Hsp90", "setting": "Hsp90 protein; 40 μM", "result": "even greater inhibition of ATPase activity of Hsp90 than geldanamycin"}]}, {"smiles": "CC(C)c1cc(-c2nnc(O)n2-c2ccc3c(ccn3C)c2)c(O)cc1O", "note": "[Compound 226, 3-(2,4-dihydroxy-5-isopropyl-phenyl)-4-(1-methyl-indol-5-yl)-5-hydroxy-[1,2,4] triazole]", "values": [{"measurement": "pIC50", "setting": "[1]", "result": 7.74}, {"measurement": "toxicity", "setting": "[5]", "result": "not associated with excessive toxicity; also recorded: Overt toxicity was not observed"}, {"measurement": "% T/C value", "setting": "[5]; day 36", "result": 8, "unit": "%"}, {"measurement": "average bodyweight loss relative to the start of the study", "setting": "[5]; day 36", "result": "−3.5", "unit": "%"}, {"measurement": "pIC50", "setting": "[2]; Homo sapiens", "result": 8.10}, {"measurement": "pIC50", "setting": "[3]", "result": 7.59}]}, {"smiles": "C=CCNC1=C2C[C@@H](C)C[C@H](OC)[C@H](O)[C@@H](C)/C=C(\\C)[C@H](OC(N)=O)[C@@H](OC)/C=C\\C=C(/C)C(=O)NC(=CC1=O)C2=O", "note": "[Compound 17-AAG]", "values": [{"measurement": "pIC50", "setting": "[1]", "result": 6.61}, {"measurement": "pIC50", "setting": "[3]", "result": 6.69}]}]}
